Results published in PubChem BioAssay AID248 (DTP/NCI, 2004).
Where “and” joins values, the source holds several entries; their conditions need not be identical. Equal values may be shown once. Inconclusive results and toxic doses are left out. Cut-off read from the data, not from the text of the source: active = T/C of 150% or more; inactive = T/C below 125%.

Test system: L1210 leukemia ip in BDF1 mice, survival T/C
Experiment: NCI In Vivo Anticancer Drug Screen. Data for tumor model L1210 Leukemia (intraperitoneal) in B6D2F1 (BDF1) mice
Conditions: endpoint: mean survival time, higher = longer survival
Procedure, shortened: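 Read-out is survival time, reported as the treated-group measurement over the vehicle-control measurement.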

[1] = dose: 100.0 mg/kg/injection, schedule: Q01DX009 (ip), vehicle: saline with Tween-80
[2] = dose: 200.0 mg/kg/injection, schedule: Q01DX009 (ip), vehicle: saline with Tween-80
[3] = dose: 400.0 mg/kg/injection, schedule: Q01DX009 (ip), vehicle: saline with Tween-80
[4] = dose: 100.0 mg/kg/injection, schedule: Q04DX002 (ip), vehicle: Klucel (hydroxypropylcellulose) (HPC)
[5] = dose: 200.0 mg/kg/injection, schedule: Q04DX002 (ip), vehicle: Klucel (hydroxypropylcellulose) (HPC)
[6] = dose: 400.0 mg/kg/injection, schedule: Q04DX002 (ip), vehicle: Klucel (hydroxypropylcellulose) (HPC)
[7] = dose: 100.0 mg/kg/injection, schedule: Q04DX003 (ip), vehicle: saline
[8] = dose: 200.0 mg/kg/injection, schedule: Q04DX003 (ip), vehicle: saline
[9] = dose: 400.0 mg/kg/injection, schedule: Q04DX003 (ip), vehicle: saline
[10] = dose: 25.0 mg/kg/injection, schedule: Q01DX009 (ip), vehicle: saline
[11] = dose: 100.0 mg/kg/injection, schedule: Q04DX003 (ip), vehicle: saline with Tween-80
[12] = dose: 200.0 mg/kg/injection, schedule: Q04DX003 (ip), vehicle: saline with Tween-80
[13] = dose: 400.0 mg/kg/injection, schedule: Q04DX003 (ip), vehicle: saline with Tween-80

Measured: T/C

CC1([N+](=O)[O-])COP(=O)(Nc2ccc(Br)cc2)OC1 (stereo unspecified)
inactive: dose: 50.0 mg/kg/injection, schedule: Q01DX001 (ip), vehicle: saline 93 % of control | dose: 100.0 mg/kg/injection, schedule: Q01DX001 (ip), vehicle: saline 98 % of control | dose: 200.0 mg/kg/injection, schedule: Q01DX001 (ip), vehicle: saline 104 % of control | dose: 400.0 mg/kg/injection, schedule: Q01DX001 (ip), vehicle: saline 122 % of control

CC(C)(C)SC(C)(C)C
inactive: [1] 96 % of control | [2] 96 % of control | [3] 96 % of control

N[n+]1ccccc1
inactive: dose: 100.0 mg/kg/injection, schedule: Q04DX002 (ip), vehicle: saline with Tween-80 102 % of control | dose: 200.0 mg/kg/injection, schedule: Q04DX002 (ip), vehicle: saline with Tween-80 102 % of control | dose: 400.0 mg/kg/injection, schedule: Q04DX002 (ip), vehicle: saline with Tween-80 98 % of control

CC(C)=C1C2CCC1NN2
inactive: dose: 50.0 mg/kg/injection, schedule: Q01DX001 (ip), vehicle: Klucel (hydroxypropylcellulose) (HPC) 108 % of control

COC(=O)C1C(O)C(C)C(O)C(C)/C=C\C=C(C)C(=O)Nc2c(C)c(OC(C)=O)c3c(c2O)C(=O)C(C)=C2OCOC(=C23)C(C)=CC(C)(O)C(O)C(C)C1O (stereo unspecified)
inactive: [4] 104 % of control | [5] 101 % of control | [6] 90 % of control

O=NN(CCCl)C(=O)Nc1ccc(Oc2ccc(NC(=O)N(CCCl)N=O)cc2)cc1
active: dose: 375.0 mg/kg/injection, schedule: Q01DX001 (ip), vehicle: carboxymethylcellulose (CMC) 192 % of control | dose: 500.0 mg/kg/injection, schedule: Q01DX001 (ip), vehicle: carboxymethylcellulose (CMC) 198 % of control | dose: 750.0 mg/kg/injection, schedule: Q01DX001 (ip), vehicle: carboxymethylcellulose (CMC) 190 % of control | dose: 1000.0 mg/kg/injection, schedule: Q01DX001 (ip), vehicle: carboxymethylcellulose (CMC) 154 % of control and 246 % of control
inactive: dose: 1250.0 mg/kg/injection, schedule: Q01DX001 (ip), vehicle: carboxymethylcellulose (CMC) 104 % of control | dose: 1500.0 mg/kg/injection, schedule: Q01DX001 (ip), vehicle: carboxymethylcellulose (CMC) 122 % of control | dose: 2000.0 mg/kg/injection, schedule: Q01DX001 (ip), vehicle: carboxymethylcellulose (CMC) 86 % of control

N#C/C(=C\c1cccn1Cc1ccc2c(c1)OCO2)C(N)=O
inactive: dose: 25.0 mg/kg/injection, schedule: Q04DX002 (ip), vehicle: Klucel (hydroxypropylcellulose) (HPC) 101 % of control | dose: 50.0 mg/kg/injection, schedule: Q04DX002 (ip), vehicle: Klucel (hydroxypropylcellulose) (HPC) 101 % of control | [4] 96 % of control

ClP1(N2CCCCC2)=NP(Cl)(N2CCCCC2)=NP(Cl)(N2CCCCC2)=NP(Cl)(N2CCCCC2)=N1 (stereo unspecified)
inactive: [7] 105 % of control | [8] 94 % of control | [9] 94 % of control

CCC(CC)CCCC(C)Nc1ccnc2cc(Cl)ccc12 (stereo unspecified)
inactive: dose: 6.25 mg/kg/injection, schedule: Q01DX009 (ip), vehicle: saline 101 % of control | dose: 12.5 mg/kg/injection, schedule: Q01DX009 (ip), vehicle: saline 98 % of control | [10] 95 % of control

CC(C)CCCC(C)C1CCC2C3CC(=O)NC4CC(Br)CCC4(C)C3CCC12C (stereo unspecified)
inactive: dose: 100.0 mg/kg/injection, schedule: Q04DX003 (ip), vehicle: acetone 93 % of control | dose: 200.0 mg/kg/injection, schedule: Q04DX003 (ip), vehicle: acetone 102 % of control | dose: 400.0 mg/kg/injection, schedule: Q04DX003 (ip), vehicle: acetone 98 % of control

CSC(c1ccccc1)=[N+]1CCOCC1
inactive: dose: 50.0 mg/kg/injection, schedule: Q01DX009 (ip), vehicle: saline sonified 100 % of control | dose: 100.0 mg/kg/injection, schedule: Q01DX009 (ip), vehicle: saline sonified 94 % of control | dose: 100.0 mg/kg/injection, schedule: Q04DX003 (ip), vehicle: Klucel (hydroxypropylcellulose) (HPC) 102 % of control | dose: 200.0 mg/kg/injection, schedule: Q01DX009 (ip), vehicle: saline sonified 100 % of control | dose: 200.0 mg/kg/injection, schedule: Q04DX003 (ip), vehicle: Klucel (hydroxypropylcellulose) (HPC) 98 % of control

O=C(CC(=O)c1ccccc1)Nc1cccc([N+](=O)[O-])c1
inactive: [11] 90 % of control | [12] 86 % of control | [13] 86 % of control

CC(C)CCS(=O)CCC(C)C
inactive: [1] 96 % of control | [11] 105 % of control | [2] 96 % of control | [12] 120 % of control | [3] 100 % of control | [13] 97 % of control

O=C(NCCCCCCCCNC(=O)Nc1ccc(C2=NCCN2)cc1)Nc1ccc(C2=NCCN2)cc1
active: dose: 62.0 mg/kg/injection, schedule: Q01DX Z (ip), vehicle: carboxymethylcellulose (CMC) 151 % of control | dose: 100.0 mg/kg/injection, schedule: Q01DX Z (ip), vehicle: carboxymethylcellulose (CMC) 187 % of control | dose: 125.0 mg/kg/injection, schedule: Q01DX Z (ip), vehicle: carboxymethylcellulose (CMC) 157 % of control | dose: 150.0 mg/kg/injection, schedule: Q01DX Z (ip), vehicle: carboxymethylcellulose (CMC) 213 % of control
inactive: dose: 25.0 mg/kg/injection, schedule: Q01DX Z (ip), vehicle: carboxymethylcellulose (CMC) 117 % of control | dose: 62.0 mg/kg/injection, schedule: Q01DX Z (oral), vehicle: carboxymethylcellulose (CMC) 103 % of control | dose: 125.0 mg/kg/injection, schedule: Q01DX Z (oral), vehicle: carboxymethylcellulose (CMC) 111 % of control | dose: 250.0 mg/kg/injection, schedule: Q01DX Z (ip), vehicle: carboxymethylcellulose (CMC) 114 % of control | dose: 250.0 mg/kg/injection, schedule: Q01DX Z (oral), vehicle: carboxymethylcellulose (CMC) 109 % of control | dose: 500.0 mg/kg/injection, schedule: Q01DX Z (oral), vehicle: carboxymethylcellulose (CMC) 120 % of control

O=C/C=C/Nc1ccccc1
inactive: [7] 105 % of control | [8] 108 % of control | [9] 100 % of control

Cc1ccc(CNC(=O)Nc2cccc(Cl)c2)cc1
inactive: [4] 115 % of control | [5] 102 % of control | [6] 108 % of control

O=[N+]([O-])c1ccc2c(c1)-c1ccccc1C2O (stereo unspecified)
inactive: dose: 100.0 mg/kg/injection, schedule: Q01DX005 (ip), vehicle: Klucel (hydroxypropylcellulose) (HPC) 105 % of control | [4] 107 % of control | dose: 200.0 mg/kg/injection, schedule: Q01DX005 (ip), vehicle: Klucel (hydroxypropylcellulose) (HPC) 94 % of control | [5] 93 % of control | dose: 400.0 mg/kg/injection, schedule: Q01DX005 (ip), vehicle: Klucel (hydroxypropylcellulose) (HPC) 91 % of control | [6] 104 % of control

CCCCC(CC)CCC(O)CC (stereo unspecified)
inactive: [1] 98 % of control | [11] 98 % of control | [2] 101 % of control | [12] 95 % of control | [3] 97 % of control | [13] 98 % of control

CCCCCCCCCCCCCCCC(=O)N(CCCC)CCCC
inactive: dose: 100.0 mg/kg/injection, schedule: Q01DX001 (ip), vehicle: carboxymethylcellulose (CMC) 98 % of control | dose: 100.0 mg/kg/injection, schedule: Q01DX009 (ip), vehicle: carboxymethylcellulose (CMC) 96 % of control and 110 % of control | dose: 100.0 mg/kg/injection, schedule: Q04DX003 (ip), vehicle: carboxymethylcellulose (CMC) 96 % of control | dose: 200.0 mg/kg/injection, schedule: Q01DX001 (ip), vehicle: carboxymethylcellulose (CMC) 102 % of control | dose: 200.0 mg/kg/injection, schedule: Q01DX009 (ip), vehicle: carboxymethylcellulose (CMC) 100 % of control and 110 % of control | dose: 200.0 mg/kg/injection, schedule: Q04DX003 (ip), vehicle: carboxymethylcellulose (CMC) 94 % of control | dose: 400.0 mg/kg/injection, schedule: Q01DX001 (ip), vehicle: carboxymethylcellulose (CMC) 102 % of control | dose: 400.0 mg/kg/injection, schedule: Q01DX009 (ip), vehicle: carboxymethylcellulose (CMC) 96 % of control and 104 % of control | dose: 400.0 mg/kg/injection, schedule: Q04DX003 (ip), vehicle: carboxymethylcellulose (CMC) 96 % of control

CN(C)CCCc1c2ccccc2nc2ccc(Cl)cc12
inactive: dose: 12.0 mg/kg/injection, schedule: Q01DX009 (ip), vehicle: saline 98 % of control | [10] 101 % of control
